Like-named read-outs stand apart in the source and are kept apart here.
Legend:
P. aegyptiaca seeds = experiment: Parasitic seed germination bioassay, Phelipanche; assay type: in vivo, Phelipanche aegyptiaca
Method: (§4) Germination activity of SL analogs on S. hermonthica and P. aegyptiaca seeds was tested by following the procedure described before ([Jamil et al., 2012]). The preconditioned Striga and Phelipanche seeds were treated with 50 μl of each SL analog solution at a concentration range (10^−5–10^−12 M). GR24 and sterile MilliQ water were included as positive and negative controls, respectively. The treated seeds were allowed to germinate in the dark for 24 h at 30°C (for Striga) and for 1 week at 25°C (for Phelipanche). The germinated and non-germinated seeds were counted under a binocular microscope, and germination rate (in %) was calculated.
(§5) Collected data were analyzed statistically using statistical software package R (version 3.2.2).

Striga hermonthica = experiment: Striga emergence in pots under greenhouse conditions (suicidal germination, rice host); assay type: in vivo; details: formulated 1.0 μM
Method: About 10 mg of (ca 4,000) Striga seeds were thoroughly mixed in 2 L of sand and soil mixture (1:1) and added in 3-L perforated plastic pot containing 0.5 L of clean soil in the bottom. Striga seeds were first preconditioned by giving light irrigation and putting pots at 35°C in greenhouse for 10 days. Each pot was sprayed with 20-ml (1.0 μM) formulated SL analogs up to 10 days at 2-day intervals. A light irrigation was given next day of each application to move the compound to Striga seeds and they were allowed to germinate for suicidal death without host for another 1 week. Then, three rice seedlings (5 days old) were planted in the middle of each pot. The rice plants were grown under normal growth condition (30°C, 70% RH) for 8 weeks. Number of emerged Striga plants in each pot were counted.

ShHTL7 = target: T1, ShHTL7 (Striga hermonthica, UniProt A0A0M3PNA2); experiment: In vitro YLG hydrolysis competition assay, ShHTL7; assay type: biochemical
T1 sequence (A0A0M3PNA2 1-271): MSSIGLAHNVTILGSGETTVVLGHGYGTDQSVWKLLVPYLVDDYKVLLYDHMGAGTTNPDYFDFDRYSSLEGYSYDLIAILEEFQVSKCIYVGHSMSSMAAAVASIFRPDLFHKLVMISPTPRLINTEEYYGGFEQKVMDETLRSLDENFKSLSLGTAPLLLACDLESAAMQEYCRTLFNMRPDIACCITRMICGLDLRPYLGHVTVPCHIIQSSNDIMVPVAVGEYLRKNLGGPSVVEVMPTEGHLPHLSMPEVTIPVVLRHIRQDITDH
Method: (§1) Protein expression and purification of ShHTL7 and Oryza sativa D14 (OsD14) was carried out according to the procedure described earlier ([Jamil et al., 2018]). In vitro Yoshimulactone Green (YLG) hydrolysis assays ([Tsuchiya et al., 2015]) were carried out using 3.0 μM of protein ShHTL7 and OsD14 in a reaction buffer (1X PBS buffer, pH 7.3) with 0.1% DMSO at a 100-μl volume on a 96-well black plate (Greiner). For competitive assays, rac-GR24, AR8, MP13, and MP26 (at range between 0.01 and 50 μM) were co-incubated with 1.0 μM of YLG (Tokyo Chemical Industry Co. Ltd., product number E1238) for 60 min at room temperature. Fluorescent intensity was measured by spectraMax i5 (Molecular Devices) at excitation by 480 nm and detection by 520 nm. The change in fluorescence observed over the course of 1 h of YLG in buffer without protein was subtracted from the data collected in presence of protein. IC50 values were calculated by GraphPad (Prism 7).

OsD14 = target: T2, OsD14 (Oryza sativa subsp. japonica, UniProt Q10QA5); experiment: In vitro YLG hydrolysis competition assay, OsD14; assay type: biochemical
T2 construct: made in house
T2 sequence (Q10QA5 1-318): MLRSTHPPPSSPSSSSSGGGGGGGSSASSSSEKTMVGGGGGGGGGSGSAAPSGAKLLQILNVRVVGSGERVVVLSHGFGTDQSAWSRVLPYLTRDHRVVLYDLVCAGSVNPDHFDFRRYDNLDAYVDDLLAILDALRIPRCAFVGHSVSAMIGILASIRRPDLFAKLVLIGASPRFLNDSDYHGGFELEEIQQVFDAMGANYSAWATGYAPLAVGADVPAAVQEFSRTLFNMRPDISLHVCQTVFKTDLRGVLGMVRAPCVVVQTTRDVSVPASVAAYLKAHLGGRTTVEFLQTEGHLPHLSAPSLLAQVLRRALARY
Method: as §1

rice d10 mutant = experiment: Rice micro tillering bioassay (d10 mutant, hydroponic); assay type: in vivo
Method: Rice seeds (d10) were sterilized with 2.5% sodium hypochlorite for 15 min. After thorough washing with sterile MilliQ water, the seeds were kept in water for 2 days at 30°C in the dark for imbibition and pre-germination. The pre-germinated seeds were then transferred to moist filter paper in 90-mm petri plates and incubated at 30°C overnight. The plates with germinated seeds were then shifted in a growth cabinet with fluorescent white light (130–180 μM m^−2 s^−1) for 1 week. Seven days-old seedlings were moved to 50-ml falcon tubes (one seedling per tube) containing modified half-strength Hoagland nutrient solution in greenhouse. After 1 week, rice plants were treated with 2.5 μM of each SL analog. Mock and GR24 (2.5 μM) were included as control treatments. Six applications of each SL analog were done two times in a week. After 3 weeks of application, number of tillers per plant, plant height, and fresh biomass were measured at final harvest.

Arabidopsis seedlings [1] = experiment: Arabidopsis hypocotyl elongation assay; assay type: in vivo; details: Arabidopsis thaliana, compared to control seedlings, read-out: inhibition of hypocotyl growth (reduction in hypocotyl length)
Method: (§2) The sterilized Arabidopsis seeds were grown in petri plates that were first kept at 4°C in darkness for 3 days. For hypocotyl study, the petri plates were exposed to continuous white light for 24 h, then transferred to continuous monochromatic red light (20 μmol m^−2 s^−1, 22°C) conditions for another 4 days. For lateral root density, the plates were vertically grown at 22°C in Percival incubator under long day conditions (16 h at 22°C/8 h at 16°C day/night, 60% relative humidity, 60–70 μmol m^−2 s^−1 white light) for 8 days. After scanning, the hypocotyl length and number of lateral roots were recorded using publicly available ImageJ software.^1

Striga seeds [2] = experiment: Stability of formulated SL analogs in sand (Striga germination readout); assay type: physicochemical, Striga hermonthica; details: 1.0 μM, sand, 30°C, 7 days
Method: (§3) The stability of formulated SL analogs was further tested in sand culture. About 1.5 ml of silver sand was added in each of 6 wells of 24-well plates. Then, 800 μl of formulated SL analogs (1.0 μM) was added in each of the six wells. The plates were sealed firmly with para-film, wrapped in aluminum foil, and placed at 30°C from day 1 to day 7. After 7 days, glass fiber discs containing preconditioned Striga seeds were placed on the top of each of the six wells and incubated in the dark at 30°C for 24 h. The germinated and non-germinated seeds were counted from each disc. In addition, the viability of formulated SL analogs was also tested in aqueous solution for 7 weeks at 30°C. About 800-μl aqueous solution of formulated SL analogs (1.0 μM) was added in a black Eppendorf tube weekly up to 6 weeks and incubated at 30°C. On the seventh week, about 50 μl of each analog was applied on a glass fiber disc containing preconditioned Striga seed and put again in the dark in sealed petri plates at 30°C for 24 h. Germinated and non-germinated seeds were counted from each disc.

S. hermonthica seeds = experiment: Parasitic seed germination bioassay, Striga; assay type: in vivo, Striga hermonthica; details: for EC50: Striga hermonthica
Method: as §4, §5

Striga seeds [3] = experiment: Stability of formulated SL analogs in aqueous solution under storage (Striga germination readout); assay type: physicochemical, Striga hermonthica; details: 1.0 μM
Method: as §3

Arabidopsis seedlings [4] = experiment: Arabidopsis lateral root density assay; assay type: in vivo; details: Arabidopsis thaliana, compared to control seedlings
Method: as §2

How did the EC50 (P. aegyptiaca seeds; Phelipanche aegyptiaca, read-out: EC50 P. aegyptiaca seed germination, formulated) turn out when `CC1=C[C@H](O/C=C2/C(=O)O[C@@H]3c4ccccc4C[C@H]23)OC1=O` [GR24, reference compound] was run?
Its EC50 is 9.3 nM.

What about the “P. aegyptiaca germination rate” value (P. aegyptiaca seeds; non-formulated, 1.0 μM, 1 week at 25°C) of the same compound?
Its value is 75%.

And the “decrease in Striga emergence compared to mock at 10 WAS” value (Striga hermonthica; 10 weeks after sowing)?
The value was 82%.

What about the “Striga hermonthica emergence, 5 WAS” value (Striga hermonthica; mean ± SE, n=5, 5 weeks after sowing) of the same compound?
Its value is 0.0±0.0.

What about the “Striga hermonthica emergence, 6 WAS” value (Striga hermonthica; mean ± SE, n=5, 6 weeks after sowing) of the same compound?
The value was 0.0±0.0.

And the “Striga hermonthica emergence, 7 WAS” value (Striga hermonthica; mean ± SE, n=5, 7 weeks after sowing)?
Its value is 1.0±0.6.

And the “Striga hermonthica emergence, 8 WAS” value (Striga hermonthica; mean ± SE, n=5, 8 weeks after sowing)?
Its value is 1.6±0.5.

What about the “Striga hermonthica emergence, 9 WAS” value (Striga hermonthica; mean ± SE, n=5, 9 weeks after sowing) of the same compound?
The value was 1.6±0.5.

And the “Striga hermonthica emergence, 10 WAS” value (Striga hermonthica; mean ± SE, n=5, 10 weeks after sowing)?
Its value is 2.4±0.8.

And the “percent decrease in Striga hermonthica emergence over mock, 8 WAS” value (Striga hermonthica; negative = decrease, 8 WAS)?
The value was -85%.

And the “percent decrease in Striga hermonthica emergence over mock, 9 WAS” value (Striga hermonthica; negative = decrease, 9 WAS)?
The value was -84%.

What about the “percent decrease in Striga hermonthica emergence over mock, 10 WAS” value (Striga hermonthica; negative = decrease, 10 WAS) of the same compound?
Its value is -82%.

What about the IC50 (ShHTL7) of the same compound?
The IC50 was 1640 ± 520 nM.

And the IC50 (OsD14)?
The IC50 was 1240 ± 90 nM.

And the inhibition at 2.5 µM (rice d10 mutant; Oryza sativa, read-out: tillering inhibition)?
Its inhibition at 2.5 µM is 76%.

What about the “number of tillers per plant” value (rice d10 mutant; SL-deficient d10 mutant, hydroponic, 2.5 μM, twice a week up to 3 weeks, untreated d10 six tillers) of the same compound?
Its value is 1.4 tillers per plant.

And the “plant height compared to mock” value (rice d10 mutant; d10 mutant, 2.5 μM)?
Its value is “significant increase in plant height”.

What about the inhibition at 1 µM (Arabidopsis seedlings [1]) of the same compound?
Its inhibition at 1 µM is 37%.

And the “Striga germination rate on seventh day of incubation in sand” value (Striga seeds [2])?
Its value is “around 20%”.

And the Striga germination rate (S. hermonthica seeds; 1.0 μM, formulated and non-formulated, 24 h at 30°C)?
The Striga germination rate was 75%.

And the EC50 (S. hermonthica seeds; read-out: EC50 Striga seed germination, formulated)?
The EC50 was 0.44 nM.

And the EC50 (S. hermonthica seeds; read-out: EC50 Striga seed germination, non-formulated)?
Its EC50 is 1.9 nM.

And the “Striga germination rate maintained for 5 weeks of storage” value (Striga seeds [3]; 30°C, 5 weeks)?
The value was “around 38%”.

What about the “Striga germination rate after 6 weeks of storage” value (Striga seeds [3]; 30°C, 6 weeks) of the same compound?
Its value is 11%.

And the “Striga germination rate before storage” value (Striga seeds [3]; before storage)?
Its value is 76%.

And the inhibition at 1 µM (Arabidopsis seedlings [4])?
Its inhibition at 1 µM is 53%.

From PMC6455008, “Methylation at the C-3′ in D-Ring of Strigolactone Analogs Reduces Biological Activity in Root Parasitic Plants and Rice” (Frontiers in Plant Science, 2019)
